# Results as given in ChEMBL document CHEMBL1212733, “Chemical genomics in Escherichia coli identifies an inhibitor of bacterial lipoprotein targeting” (Nat Chem Biol, 2009).
# Activity calls are given as the source filed them. No cut-off for these calls is given here.
# Tests used:
# [1] = target: D-alanine--D-alanine ligase B (Escherichia coli K-12) (UniProt P07862); assay: Inhibition of IPTG-stimulated Escherichia coli K-12 ddlB at 8 fold MIC by microarray analysis
# [2] = target: T1, Cell division protein FtsA (Escherichia coli (strain K12)) (UniProt P0ABH0); assay: Inhibition of IPTG-stimulated Escherichia coli K-12 ftsA at 4 fold MIC by microarray analysis
# T1 sequence (whole entry): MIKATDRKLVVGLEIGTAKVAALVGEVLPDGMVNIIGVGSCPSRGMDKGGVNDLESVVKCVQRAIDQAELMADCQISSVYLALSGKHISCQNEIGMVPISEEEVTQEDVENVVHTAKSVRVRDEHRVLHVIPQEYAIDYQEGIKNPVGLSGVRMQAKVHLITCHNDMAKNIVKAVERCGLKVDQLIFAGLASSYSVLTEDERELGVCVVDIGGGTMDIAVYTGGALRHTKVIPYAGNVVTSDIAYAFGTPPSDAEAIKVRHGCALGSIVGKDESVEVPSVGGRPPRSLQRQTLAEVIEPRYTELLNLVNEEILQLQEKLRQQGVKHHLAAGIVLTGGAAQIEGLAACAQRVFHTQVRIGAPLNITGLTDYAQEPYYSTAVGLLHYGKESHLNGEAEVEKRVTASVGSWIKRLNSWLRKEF
# [3] = target: D-alanine--D-alanine ligase B (Escherichia coli K-12) (UniProt P07862); assay: Inhibition of IPTG-stimulated Escherichia coli K-12 ddlB at 4 fold MIC by microarray analysis
# [4] = target: T1, Cell division protein FtsA (Escherichia coli (strain K12)); assay: Inhibition of IPTG-stimulated Escherichia coli K-12 ftsA at 8 fold MIC by microarray analysis
# [5] = target: UDP-3-O-acyl-N-acetylglucosamine deacetylase (Escherichia coli K-12) (UniProt P0A725); assay: Inhibition of IPTG-stimulated Escherichia coli K-12 envA at 4 fold MIC by microarray analysis
# UDP-3-O-acyl-N-acetylglucosamine deacetylase (Escherichia coli K-12), sequence (P0A725 whole entry): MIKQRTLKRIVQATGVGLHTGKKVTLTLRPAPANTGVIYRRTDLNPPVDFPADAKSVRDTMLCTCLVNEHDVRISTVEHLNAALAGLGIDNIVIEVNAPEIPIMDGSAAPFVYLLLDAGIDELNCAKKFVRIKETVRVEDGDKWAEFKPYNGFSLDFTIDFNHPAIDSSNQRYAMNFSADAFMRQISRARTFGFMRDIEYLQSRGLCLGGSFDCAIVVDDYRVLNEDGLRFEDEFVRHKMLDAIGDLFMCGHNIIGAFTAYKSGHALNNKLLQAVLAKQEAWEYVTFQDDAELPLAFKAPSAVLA
# [6] = target: Small ribosomal subunit protein bS18 (Escherichia coli (strain K12)) (UniProt P0A7T7); assay: Inhibition of IPTG-stimulated Escherichia coli K-12 rpSR at 4 fold MIC by microarray analysis
# [7] = target: tRNA threonylcarbamoyladenosine biosynthesis protein TsaE (Escherichia coli (strain K12)) (UniProt P0AF67); assay: Inhibition of IPTG-stimulated Escherichia coli K-12 yjeE at 4 fold MIC by microarray analysis
# [8] = target: D-alanine--D-alanine ligase B (Escherichia coli K-12) (UniProt P07862); assay: Inhibition of IPTG-stimulated Escherichia coli K-12 ddlB at 16 fold MIC by microarray analysis
# [9] = target: T2, Iron-sulfur cluster insertion protein ErpA (Escherichia coli (strain K12)) (UniProt P0ACC3); assay: Inhibition of IPTG-stimulated Escherichia coli K-12 yadR at 8 fold MIC by microarray analysis
# T2 sequence (whole entry): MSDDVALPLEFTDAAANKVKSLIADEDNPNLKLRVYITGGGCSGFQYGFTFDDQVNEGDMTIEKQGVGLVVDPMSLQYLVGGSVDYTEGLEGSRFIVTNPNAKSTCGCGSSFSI
# [10] = target: T1, Cell division protein FtsA (Escherichia coli (strain K12)); assay: Inhibition of IPTG-stimulated Escherichia coli K-12 ftsA at 16 fold MIC by microarray analysis
# [11] = target: T2, Iron-sulfur cluster insertion protein ErpA (Escherichia coli (strain K12)); assay: Inhibition of IPTG-stimulated Escherichia coli K-12 yadR at 16 fold MIC by microarray analysis
# [12] = target: T3, Outer membrane protein TolC (Escherichia coli (strain K12)) (UniProt P02930); assay: Inhibition of IPTG-stimulated Escherichia coli K-12 tolC at 4 fold MIC by microarray analysis
# T3 sequence (whole entry): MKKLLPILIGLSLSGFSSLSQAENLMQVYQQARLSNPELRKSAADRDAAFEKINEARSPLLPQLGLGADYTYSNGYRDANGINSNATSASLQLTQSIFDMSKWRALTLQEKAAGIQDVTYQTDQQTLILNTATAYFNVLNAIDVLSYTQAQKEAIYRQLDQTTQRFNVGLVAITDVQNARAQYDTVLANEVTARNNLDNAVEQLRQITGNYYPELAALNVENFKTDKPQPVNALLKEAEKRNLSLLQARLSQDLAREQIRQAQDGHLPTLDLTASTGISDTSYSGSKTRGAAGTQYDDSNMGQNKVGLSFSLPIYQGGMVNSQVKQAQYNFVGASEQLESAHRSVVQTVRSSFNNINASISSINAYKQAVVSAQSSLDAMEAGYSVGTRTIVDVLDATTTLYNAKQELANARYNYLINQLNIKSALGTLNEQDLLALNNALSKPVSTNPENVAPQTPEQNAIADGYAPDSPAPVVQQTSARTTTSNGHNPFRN
# [13] = target: T2, Iron-sulfur cluster insertion protein ErpA (Escherichia coli (strain K12)); assay: Inhibition of IPTG-stimulated Escherichia coli K-12 yadR at 4 fold MIC by microarray analysis
# [14] = target: Multidrug efflux pump subunit AcrB (Escherichia coli (strain K12)) (UniProt P31224); assay: Binding affinity to Escherichia coli K-12 MC1061 acrB assessed as susceptibility to compound efflux at 0.01 to 1 ug/ml after 16 hrs by plate reader assay
# Multidrug efflux pump subunit AcrB (Escherichia coli (strain K12)), sequence (P31224 whole entry): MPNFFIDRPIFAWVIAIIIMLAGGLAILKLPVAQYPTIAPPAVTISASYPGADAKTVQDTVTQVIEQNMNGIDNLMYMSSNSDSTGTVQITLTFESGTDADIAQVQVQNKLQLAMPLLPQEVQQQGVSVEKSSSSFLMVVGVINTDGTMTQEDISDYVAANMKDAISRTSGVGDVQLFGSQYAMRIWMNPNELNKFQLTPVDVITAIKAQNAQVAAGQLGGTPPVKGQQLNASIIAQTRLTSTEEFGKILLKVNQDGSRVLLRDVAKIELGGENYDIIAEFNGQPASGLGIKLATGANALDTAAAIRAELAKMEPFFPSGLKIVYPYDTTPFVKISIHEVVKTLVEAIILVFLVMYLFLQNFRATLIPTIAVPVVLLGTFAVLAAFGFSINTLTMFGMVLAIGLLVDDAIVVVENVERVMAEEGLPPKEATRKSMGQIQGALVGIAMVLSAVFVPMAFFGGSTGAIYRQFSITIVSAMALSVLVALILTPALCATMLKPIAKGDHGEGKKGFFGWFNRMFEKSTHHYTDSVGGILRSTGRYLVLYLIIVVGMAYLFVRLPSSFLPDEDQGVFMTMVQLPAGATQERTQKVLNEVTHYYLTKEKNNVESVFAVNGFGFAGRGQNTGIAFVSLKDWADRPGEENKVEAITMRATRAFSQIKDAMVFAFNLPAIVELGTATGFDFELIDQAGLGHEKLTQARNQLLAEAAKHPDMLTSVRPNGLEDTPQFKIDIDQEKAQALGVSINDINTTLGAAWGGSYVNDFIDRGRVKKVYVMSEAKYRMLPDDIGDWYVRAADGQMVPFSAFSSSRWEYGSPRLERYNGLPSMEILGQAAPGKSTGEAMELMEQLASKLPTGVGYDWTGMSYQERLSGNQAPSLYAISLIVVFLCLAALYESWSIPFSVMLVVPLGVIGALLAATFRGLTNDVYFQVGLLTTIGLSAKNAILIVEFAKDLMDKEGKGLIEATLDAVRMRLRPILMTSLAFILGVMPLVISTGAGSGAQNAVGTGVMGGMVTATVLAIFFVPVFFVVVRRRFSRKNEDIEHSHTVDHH
# [15] = target: Farnesyl diphosphate synthase (Escherichia coli K-12) (UniProt P22939); assay: Inhibition of IPTG-stimulated Escherichia coli K-12 ispA at 4 fold MIC by microarray analysis
# Farnesyl diphosphate synthase (Escherichia coli K-12), sequence (P22939 whole entry): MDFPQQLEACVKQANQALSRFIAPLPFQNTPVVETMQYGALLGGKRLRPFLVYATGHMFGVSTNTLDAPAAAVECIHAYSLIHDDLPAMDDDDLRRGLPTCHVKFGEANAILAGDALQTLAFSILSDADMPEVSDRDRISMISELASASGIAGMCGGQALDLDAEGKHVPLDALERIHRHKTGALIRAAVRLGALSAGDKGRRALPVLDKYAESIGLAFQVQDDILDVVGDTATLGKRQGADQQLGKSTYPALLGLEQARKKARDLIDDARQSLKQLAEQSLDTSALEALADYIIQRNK
# [16] = target: T4, Dihydrofolate synthase/folylpolyglutamate synthase (Escherichia coli (strain K12)) (UniProt P08192); assay: Inhibition of IPTG-stimulated Escherichia coli K-12 folC at 4 fold MIC by microarray analysis
# T4 sequence (whole entry): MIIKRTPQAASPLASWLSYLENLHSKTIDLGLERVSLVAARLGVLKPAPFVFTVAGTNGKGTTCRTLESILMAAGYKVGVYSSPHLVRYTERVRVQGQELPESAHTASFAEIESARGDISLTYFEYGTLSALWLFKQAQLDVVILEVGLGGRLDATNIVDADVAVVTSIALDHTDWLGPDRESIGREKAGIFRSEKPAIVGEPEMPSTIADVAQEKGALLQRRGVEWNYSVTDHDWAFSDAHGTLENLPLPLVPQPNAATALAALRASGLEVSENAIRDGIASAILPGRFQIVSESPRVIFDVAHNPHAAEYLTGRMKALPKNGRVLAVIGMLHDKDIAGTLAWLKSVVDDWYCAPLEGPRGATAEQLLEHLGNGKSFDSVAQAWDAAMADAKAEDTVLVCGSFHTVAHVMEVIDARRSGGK
# [17] = target: T4, Dihydrofolate synthase/folylpolyglutamate synthase (Escherichia coli (strain K12)); assay: Inhibition of IPTG-stimulated Escherichia coli K-12 folC at 16 fold MIC by microarray analysis
# [18] = target: UDP-N-acetylmuramoyl-L-alanyl-D-glutamate--2,6-diaminopimelate ligase (Escherichia coli (strain K12)) (UniProt P22188); assay: Inhibition of IPTG-stimulated Escherichia coli K-12 murE at 4 fold MIC by microarray analysis
# UDP-N-acetylmuramoyl-L-alanyl-D-glutamate--2,6-diaminopimelate ligase (Escherichia coli (strain K12)), sequence (P22188 whole entry): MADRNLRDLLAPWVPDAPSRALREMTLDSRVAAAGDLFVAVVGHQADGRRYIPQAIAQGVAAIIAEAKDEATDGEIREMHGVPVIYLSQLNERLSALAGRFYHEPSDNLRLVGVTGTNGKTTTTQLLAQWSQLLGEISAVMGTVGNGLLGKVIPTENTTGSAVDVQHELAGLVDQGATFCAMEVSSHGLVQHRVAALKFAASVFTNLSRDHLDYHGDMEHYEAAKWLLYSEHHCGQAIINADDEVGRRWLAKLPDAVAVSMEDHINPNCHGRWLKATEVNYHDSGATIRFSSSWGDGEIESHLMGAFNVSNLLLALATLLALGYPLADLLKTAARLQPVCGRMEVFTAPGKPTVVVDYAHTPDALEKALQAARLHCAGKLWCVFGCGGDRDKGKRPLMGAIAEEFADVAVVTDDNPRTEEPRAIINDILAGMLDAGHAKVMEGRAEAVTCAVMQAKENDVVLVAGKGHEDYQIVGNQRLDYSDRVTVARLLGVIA
# [19] = target: Octaprenyl diphosphate synthase (Escherichia coli (strain K12)) (UniProt P0AD57); assay: Inhibition of IPTG-stimulated Escherichia coli K-12 ispB at 4 fold MIC by microarray analysis
# Octaprenyl diphosphate synthase (Escherichia coli (strain K12)), sequence (P0AD57 whole entry): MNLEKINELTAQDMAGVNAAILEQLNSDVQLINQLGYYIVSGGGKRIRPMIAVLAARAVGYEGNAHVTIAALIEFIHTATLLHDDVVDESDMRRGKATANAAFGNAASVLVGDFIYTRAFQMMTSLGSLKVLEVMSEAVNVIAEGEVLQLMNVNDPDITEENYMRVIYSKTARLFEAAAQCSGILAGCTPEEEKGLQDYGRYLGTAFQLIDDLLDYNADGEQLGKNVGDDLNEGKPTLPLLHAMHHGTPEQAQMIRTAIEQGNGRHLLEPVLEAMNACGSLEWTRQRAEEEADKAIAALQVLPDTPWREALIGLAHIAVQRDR
# [20] = target: Multifunctional CCA protein (Escherichia coli (strain K12)) (UniProt P06961); assay: Inhibition of IPTG-stimulated Escherichia coli K-12 cca at 4 fold MIC by microarray analysis
# Multifunctional CCA protein (Escherichia coli (strain K12)), sequence (P06961 whole entry): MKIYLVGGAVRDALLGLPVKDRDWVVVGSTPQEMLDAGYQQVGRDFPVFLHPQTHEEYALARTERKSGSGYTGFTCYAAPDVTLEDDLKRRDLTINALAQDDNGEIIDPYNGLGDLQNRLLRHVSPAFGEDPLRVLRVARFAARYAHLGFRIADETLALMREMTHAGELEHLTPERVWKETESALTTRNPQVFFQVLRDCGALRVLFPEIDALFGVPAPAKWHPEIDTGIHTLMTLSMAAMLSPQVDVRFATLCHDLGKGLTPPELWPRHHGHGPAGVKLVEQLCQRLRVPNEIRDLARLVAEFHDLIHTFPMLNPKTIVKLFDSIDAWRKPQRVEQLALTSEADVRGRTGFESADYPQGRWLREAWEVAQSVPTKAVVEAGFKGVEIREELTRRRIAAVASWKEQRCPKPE
# [21] = target: Putative reactive intermediate deaminase TdcF (Escherichia coli (strain K12)) (UniProt P0AGL2); assay: Inhibition of IPTG-stimulated Escherichia coli K-12 yhaR at 4 fold MIC by microarray analysis
# [22] = target: Acyl carrier protein (Escherichia coli (strain K12)) (UniProt P0A6A8); assay: Inhibition of IPTG-stimulated Escherichia coli K-12 acpP at 8 fold MIC by microarray analysis
# Acyl carrier protein (Escherichia coli (strain K12)), sequence (P0A6A8 whole entry): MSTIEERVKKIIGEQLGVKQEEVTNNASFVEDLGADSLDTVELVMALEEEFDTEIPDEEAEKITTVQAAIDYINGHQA
# [23] = target: Acyl carrier protein (Escherichia coli (strain K12)) (UniProt P0A6A8); assay: Inhibition of IPTG-stimulated Escherichia coli K-12 acpP at 4 fold MIC by microarray analysis
# [24] = target: 3-oxoacyl-[acyl-carrier-protein] synthase 1 (Escherichia coli K-12) (UniProt P0A953); assay: Inhibition of IPTG-stimulated Escherichia coli K-12 fabB at 4 fold MIC by microarray analysis
# 3-oxoacyl-[acyl-carrier-protein] synthase 1 (Escherichia coli K-12), sequence (P0A953 whole entry): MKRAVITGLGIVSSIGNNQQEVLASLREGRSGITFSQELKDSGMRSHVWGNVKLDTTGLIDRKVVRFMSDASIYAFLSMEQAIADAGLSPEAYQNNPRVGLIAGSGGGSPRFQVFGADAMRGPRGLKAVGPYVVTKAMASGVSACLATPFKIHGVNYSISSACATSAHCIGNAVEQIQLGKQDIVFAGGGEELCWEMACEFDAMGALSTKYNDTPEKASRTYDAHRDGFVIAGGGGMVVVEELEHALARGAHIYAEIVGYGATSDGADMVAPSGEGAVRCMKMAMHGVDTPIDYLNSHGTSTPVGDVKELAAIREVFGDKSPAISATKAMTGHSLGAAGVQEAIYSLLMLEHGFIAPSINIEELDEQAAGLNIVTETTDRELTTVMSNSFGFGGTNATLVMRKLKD
# [25] = target: T5, Uncharacterized protein YdiL (Escherichia coli (strain K12)) (UniProt P76196); assay: Inhibition of IPTG-stimulated Escherichia coli K-12 ydiL at 4 fold MIC by microarray analysis
# T5 sequence (whole entry): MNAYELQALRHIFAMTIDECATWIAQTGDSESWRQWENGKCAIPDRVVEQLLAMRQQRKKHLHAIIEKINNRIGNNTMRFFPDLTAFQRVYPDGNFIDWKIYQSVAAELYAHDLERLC
# [26] = target: T3, Outer membrane protein TolC (Escherichia coli (strain K12)); assay: Inhibition of IPTG-stimulated Escherichia coli K-12 tolC at 16 fold MIC by microarray analysis
# [27] = target: Guanylate kinase (Escherichia coli (strain K12)) (UniProt P60546); assay: Inhibition of IPTG-stimulated Escherichia coli K-12 gmk at 4 fold MIC by microarray analysis
# Guanylate kinase (Escherichia coli (strain K12)), sequence (P60546 whole entry): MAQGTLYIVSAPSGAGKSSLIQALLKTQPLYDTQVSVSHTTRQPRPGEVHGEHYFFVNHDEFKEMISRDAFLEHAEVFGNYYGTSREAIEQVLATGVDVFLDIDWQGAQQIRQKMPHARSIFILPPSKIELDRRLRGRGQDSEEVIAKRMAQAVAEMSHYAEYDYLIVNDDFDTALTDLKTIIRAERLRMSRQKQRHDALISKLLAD
# [28] = target: 1-acyl-sn-glycerol-3-phosphate acyltransferase (Escherichia coli (strain K12)) (UniProt P26647); assay: Inhibition of IPTG-stimulated Escherichia coli K-12 plsC at 4 fold MIC by microarray analysis
# 1-acyl-sn-glycerol-3-phosphate acyltransferase (Escherichia coli (strain K12)), sequence (P26647 whole entry): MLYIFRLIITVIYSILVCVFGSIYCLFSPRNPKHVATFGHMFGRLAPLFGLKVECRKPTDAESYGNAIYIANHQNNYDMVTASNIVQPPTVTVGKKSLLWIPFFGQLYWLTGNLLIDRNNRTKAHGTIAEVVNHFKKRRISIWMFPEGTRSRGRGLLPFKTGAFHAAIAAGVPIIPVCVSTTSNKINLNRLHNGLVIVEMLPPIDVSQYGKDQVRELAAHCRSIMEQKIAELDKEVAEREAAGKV
# [29] = target: Uncharacterized protein YdfB (Escherichia coli (strain K12)) (UniProt P29009); assay: Inhibition of IPTG-stimulated Escherichia coli K-12 ydfB at 4 fold MIC by microarray analysis
# Uncharacterized protein YdfB (Escherichia coli (strain K12)), sequence (P29009 whole entry): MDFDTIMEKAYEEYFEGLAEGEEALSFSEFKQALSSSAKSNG
# [30] = target: Octaprenyl diphosphate synthase (Escherichia coli (strain K12)) (UniProt P0AD57); assay: Inhibition of IPTG-stimulated Escherichia coli K-12 ispB at 8 fold MIC by microarray analysis
# [31] = target: UDP-N-acetylglucosamine 1-carboxyvinyltransferase (Escherichia coli K-12) (UniProt P0A749); assay: Inhibition of IPTG-stimulated Escherichia coli K-12 murA at 4 fold MIC by microarray analysis
# UDP-N-acetylglucosamine 1-carboxyvinyltransferase (Escherichia coli K-12), sequence (P0A749 whole entry): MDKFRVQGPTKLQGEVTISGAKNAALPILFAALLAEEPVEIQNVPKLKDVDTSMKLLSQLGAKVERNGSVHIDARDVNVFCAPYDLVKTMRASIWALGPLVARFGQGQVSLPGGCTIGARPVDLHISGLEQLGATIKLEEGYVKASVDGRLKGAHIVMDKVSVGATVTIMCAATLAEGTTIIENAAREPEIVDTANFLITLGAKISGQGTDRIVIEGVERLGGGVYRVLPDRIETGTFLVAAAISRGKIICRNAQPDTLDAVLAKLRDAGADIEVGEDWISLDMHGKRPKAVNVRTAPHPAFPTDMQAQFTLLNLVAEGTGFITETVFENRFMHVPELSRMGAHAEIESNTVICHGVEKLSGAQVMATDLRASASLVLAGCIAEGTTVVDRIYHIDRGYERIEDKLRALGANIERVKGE
# [32] = target: Large ribosomal subunit protein bL28 (Escherichia coli (strain K12)) (UniProt P0A7M2); assay: Inhibition of IPTG-stimulated Escherichia coli K-12 rpmB at 4 fold MIC by microarray analysis
# [33] = target: Fructose-bisphosphate aldolase class 2 (Escherichia coli K-12) (UniProt P0AB71); assay: Inhibition of IPTG-stimulated Escherichia coli K-12 fbaA at 4 fold MIC by microarray analysis
# Fructose-bisphosphate aldolase class 2 (Escherichia coli K-12), sequence (P0AB71 whole entry): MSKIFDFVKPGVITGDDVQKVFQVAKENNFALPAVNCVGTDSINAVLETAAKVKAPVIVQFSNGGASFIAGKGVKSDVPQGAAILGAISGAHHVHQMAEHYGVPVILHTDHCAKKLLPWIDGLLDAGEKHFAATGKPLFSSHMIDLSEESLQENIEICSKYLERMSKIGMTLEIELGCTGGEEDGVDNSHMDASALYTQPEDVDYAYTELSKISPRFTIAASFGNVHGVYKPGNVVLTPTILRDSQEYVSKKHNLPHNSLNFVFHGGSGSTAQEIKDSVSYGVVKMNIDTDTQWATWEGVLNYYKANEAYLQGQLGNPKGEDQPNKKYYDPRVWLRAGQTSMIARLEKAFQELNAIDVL
# [34] = target: CDP-diacylglycerol--glycerol-3-phosphate 3-phosphatidyltransferase (Escherichia coli (strain K12)) (UniProt P0ABF8); assay: Inhibition of IPTG-stimulated Escherichia coli K-12 pgsA at 4 fold MIC by microarray analysis
# CDP-diacylglycerol--glycerol-3-phosphate 3-phosphatidyltransferase (Escherichia coli (strain K12)), sequence (P0ABF8 whole entry): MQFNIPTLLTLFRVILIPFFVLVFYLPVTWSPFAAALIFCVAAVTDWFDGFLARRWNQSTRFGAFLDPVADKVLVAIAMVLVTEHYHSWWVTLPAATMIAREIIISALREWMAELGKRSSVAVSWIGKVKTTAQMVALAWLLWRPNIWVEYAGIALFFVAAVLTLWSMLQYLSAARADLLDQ
# [35] = target: 3-oxoacyl-[acyl-carrier-protein] synthase 1 (Escherichia coli K-12) (UniProt P0A953); assay: Inhibition of IPTG-stimulated Escherichia coli K-12 fabB at 8 fold MIC by microarray analysis
structure (smiles),measurement,setting,value
N[C@@H]1CONC1=O,inhibition,[1],Active
same,inhibition,[2],Active
same,inhibition,[3],Active
same,inhibition,[4],Active
same,inhibition,[5],Active
same,inhibition,[6],Active
same,inhibition,[7],Active
same,inhibition,[8],Active
same,inhibition,[9],Active
same,inhibition,[10],Active
same,inhibition,[11],Active
same,inhibition,[12],Active
same,inhibition,[13],Active
CCn1cc(C(=O)O)c(=O)c2cc(F)c(N3CCNCC3)cc21,Activity,[14],inactive
C[C@@H]1O[C@@H]1P(=O)(O)O,inhibition,[15],Active
same,inhibition,[16],Active
same,inhibition,[17],Active
same,inhibition,[18],Active
same,inhibition,[19],Active
same,inhibition,[20],Active
same,inhibition,[21],Active
same,inhibition,[22],Active
same,inhibition,[23],Active
same,inhibition,[24],Active
same,inhibition,[25],Active
same,inhibition,[26],Active
same,inhibition,[27],Active
same,inhibition,[28],Active
same,inhibition,[29],Active
same,inhibition,[30],Active
same,inhibition,[31],Active
same,inhibition,[32],Active
same,inhibition,[33],Active
same,inhibition,[34],Active
same,inhibition,[35],Active
